Test results reported in the NIST ThermoML archive (doi:10.1021/acs.jced.9b00564).
± gives the expanded uncertainty stated by the source.

Assays:
[1] = Molar enthalpy of transition or fusion; conditions: Crystal; DSC
[2] = Crystal; DSC

Molar enthalpy of transition or fusion [1]: 5.27 ± 0.182 kcal/mol
Triple point temperature [2]: 342.77 ± 1.2 K
Structure (SMILES): O=[N+]([O-])c1ncccc1O [2-nitropyridin-3-ol]
